Source: article PMC9695592, “Phenotypic Evaluation of Nucleoside Analogues against Trypanosoma cruzi Infection: In Vitro and In Vivo Approaches” (Molecules, 2022)
pEC50: −log10 of the molar value. Like-named read-outs stand apart in the source and are kept apart here.

How the values were obtained:
[1] = test system: intracellular forms of T. cruzi (Y strain) in 2D H9C2; assay: Activity against T. cruzi (Y strain) infection of H9C2 monolayers (2D); assay type: cell-based, Trypanosoma cruzi; settings: 10 µM, seven days of incubation, 95% confidence interval in brackets
Description: L929 cell lines were used to evaluate the effect of the nucleoside derivatives on the cellular viability of mammalian host cells and to assess their activity against intracellular forms of T. cruzi (Tulahuen strain expressing E. coli β-galactosidase gene, DTU VI) as reported. 2D and 3D culture systems of rat cardiomyoblast cell lines (H9C2(2-1)) were used to evaluate cardiotoxicity and to test the derivatives’ activity on intracellular forms (Y strain, DTU II). In all assays, the cell cultures were maintained at 37 °C under an atmosphere of 5% CO2.
(§1) Bloodstream trypomastigotes of the Y strain (DTU II) were obtained by cardiac puncture of infected Swiss Webster mice on the parasitemia peak to perform drug sensitivity assays. Trypomastigote forms of the Tulahuen-β gal strain were collected from the supernatant of previously infected L929 cell cultures (host/parasite cell ratio 10:1). The intracellular forms T. cruzi were studied by the infection of L929 and H9C2 (2D and 3D) cell cultures infected for 48 and 24 h with trypomastigotes of Tulahuen-β gal and Y strains, respectively. The Leishmania mexicana-Cas9 T7 strain (LmexCas9) was derived from L. mexicana WT promastigotes by expression of the Streptococcus pyogenes Cas9 nuclease gene ‘Cas9′ and maintained on 32 μg/mL hygromycin [51]. This strain and the derived strains Cas9^ΔNT1 and Cas9^ΔNT1+TcrNT2 were cultured in HOMEM medium supplemented with 10% of FBS and 1% Penicillin-Streptomycin antibiotic in unvented flasks at 25 °C [52]. The Cas9^ΔNT1 strain is identical to Cas9 except that the LmexNT1.1/NT1.2 locus encoding the L. mexicana adenosine/ pyrimidine transporters was excised using Cas9 [17, 40]. Cas9^ΔNT1+TcrNT2 is the further modification of that strain by the expression of the T. cruzi nucleoside transporter 2 (TcrNT2) gene in it, using the vector pNUS-HcN [53]. Appropriate antibiotics were added for the selection and maintenance of transfectants.
In an initial step, nucleoside derivatives were assayed against intracellular forms of Tulahuen-β gal strain in L929 cell lines. Assays were performed in sterile 96-well microtiter plates with 4 × 10^3 cells/well and 4 × 10^4 parasites/well (host/parasite cell ratio 1:10). […] Parasite burden was analyzed by adding the substrate CPRG (chlorophenol red ß-D-galactopyranoside) followed by measurements (spectrophotometrically) at 570 nm. The results were expressed as percentage of reduction in parasite growth compared to untreated cells, and EC50 values were calculated. […] After seven days of treatment, the cultures were fixed, stained with Giemsa, and 200 cells were quantified by light microscopy. The results were expressed as % of reduction in parasite burden. […]

[2] = test system: promastigotes of LmexCas9; assay: Resazurin-based assay on LmexCas9 promastigotes; assay type: cell-based, Leishmania mexicana; settings: for EC50: Leishmania mexicana, read-out: Cas9 EC50 (μM), promastigotes, resazurin-based assay, highest concentration 100 µM
Description: as §1
The EC50 values for nucleoside analogues against Leishmania mexicana promastigotes of the Cas9, Cas9^ΔNT1 and Cas9^ΔNT1+TcrNT2 strains used a resazurin-based assay, as described. Briefly, the assays were performed in standard HOMEM medium and culture conditions, in white opaque 96-well plates. For each test compound (stored as a 40 mM stock solution in 100% DMSO at −20 °C), a doubling dilution was performed over 2 rows of the plate, keeping the last well free as no-drug control with HOMEM only (23 doubling dilutions; highest concentration 100 µM). To each well, 100 µL of HOMEM containing 2 × 10^5 cells of the appropriate L. mexicana line was added, and the plates incubated for 72 h at 25 °C, followed by the addition of 20 µL of resazurin solution and further incubation for 48 h. Fluorescence was read on a FLUOstar OPTIMA plate reader (BMG Labtech, Germany), at an excitation wavelength of 544 nm and an emission wavelength of 620 nm. The EC50 values were determined by the GraphPad Prism 8.0 software using an equation for a sigmoid curve with variable slope. Pentamidine was used as positive control, and every experiment was independently performed at least 3 times independently.

SMILES	% of Death Rate by Light Microscopy Quantification 2D [1]	EC50 [2] [µM]	pEC50 ([2]; read-out: Cas9 EC50, promastigotes, resazurin-based assay, highest concentration 100 µM)
Nc1ncnc2c1c(-c1ccc(Cl)c(F)c1)cn2[C@@H]1O[C@H](CO)[C@@H](O)[C@H]1O [FH10714, 7-(3-fluoro,4-chlorophenyl)tubercidin]	100%	> 100	–
Nc1ncnc2c1c(-c1ccc(F)c(F)c1)cn2[C@@H]1O[C@H](CO)[C@@H](O)[C@H]1O [FH11706, 7-(3,4-Difluorophenyl)tubercidin]	99.25 (98.83 to 99.67) %	> 100	–
O=C(Cn1ccnc1[N+](=O)[O-])NCc1ccccc1 [Bz, Benznidazole, reference compound]	100%	–	–
Nc1ncnc2c1c(-c1ccc(Cl)c(Cl)c1)cn2[C@@H]1O[C@H](CO)C[C@H]1O [FH8513, 7-(3,4-dichlorophenyl)-3′-deoxytubercidin]	99.14 (97.9 to 100) %	~100	< 4.00
